Where two headings read alike, the source gives them in different places.

One may read the EC50 as the concentration that produces a half-maximal response.

In the test the target is T1, human MC-4R (Homo sapiens, UniProt P32245).
T1 construct: expressed in transfected cells
The experiment in a line: Biological Assay: inhibition of AgRP functional interaction with MC-4R in presence of αMSH (cAMP production). It counts as cell-based. To be noted: HEK293 cells expressing human MC-4R, AgRP83-132 and αMSH present. On the procedure: The following method is illustrative of techniques that may be employed to measure the ability of the compounds of Formula (I) to functionally modulate the binding of AgRP to melanocortin receptors. In particular, the assay below measures the ability of compounds of Formula (I) or pharmaceutically acceptable salts thereof to functionally modulate the binding of AgRP to MC-4R in the presence of a MC-4R agonist, such as alpha-MSH.
HEK293 cells stably expressing human MC-4R receptors were grown in high glucose Dulbecco's Modified Eagle Medium (DMEM) with 4500 mg glucose/L, L-glutamine, NaHCO3, pyrdoxin HCl, 10 mM HEPES (pH 7.4), 0.1 mM NEAA (non-essential amino acid medium) (GIBCO Cat#11140-050), 10% fetal bovine serum and 700 μg/mL G418. Cells were grown in T-225 flasks at 37° C. with CO2 and humidity control.
On the day of assay, cells were washed twice with phosphate buffered saline without calcium and magnesium (PBS) and incubated with 10 mL PBS until the cells were detached from the flask. The detached cells were centrifuged at 240 g for 5 min. The cell pellet was re-suspended in assay buffer (Earle's balanced salt solution (Sigma E3024) supplemented with 10 mM HEPES, pH 7.4, 0.5 mM IBMX and protease inhibitor cocktail (Roche, 1 complete tablet/75 mL buffer)).
The inhibitory or enhancement effect of compounds on AgRP activity was measured in a multi-component assay containing testing compounds, AgRP83-132 (human, Phoenix Pharma, cat no. 003-53), cells expressing MC-4R, and αMSH (Bachem, cat no. H-1075). Test compounds, AgRP and αMSH were diluted with assay buffer. Test compounds and AgRP were mixed to 4 times of the final concentration and incubated at room temperature for 30 min. Five μL of testing compound/AgRP solution followed with 10 μL of cells (20,000 cells/well) were added to each well of a 384-well reaction plate before 5 μL of αMSH was added. Cells were stimulated with αMSH for an additional 30 min at 37° C.
Stimulation of cells was stopped by adding a lysis buffer and cells were lysed. The intracellular concentration of cAMP may be measured by various techniques known to one of skill in the art including, but not limited to, fluorescence polarization (FP) and time-resolved fluorescence (TRF).
The inhibition was shown by an increase in MC-4R mediated cAMP production.
On the technique in general: Cyclic AMP is a second messenger, typically raised through Gs and lowered through Gi signalling.

Where [1] appears, read: read-out: Average EC50 (nM) in Biological Assay.
Setting [2] is: Average EC50 (nM) in Biological Assay.

T1 sequence (P32245 whole entry): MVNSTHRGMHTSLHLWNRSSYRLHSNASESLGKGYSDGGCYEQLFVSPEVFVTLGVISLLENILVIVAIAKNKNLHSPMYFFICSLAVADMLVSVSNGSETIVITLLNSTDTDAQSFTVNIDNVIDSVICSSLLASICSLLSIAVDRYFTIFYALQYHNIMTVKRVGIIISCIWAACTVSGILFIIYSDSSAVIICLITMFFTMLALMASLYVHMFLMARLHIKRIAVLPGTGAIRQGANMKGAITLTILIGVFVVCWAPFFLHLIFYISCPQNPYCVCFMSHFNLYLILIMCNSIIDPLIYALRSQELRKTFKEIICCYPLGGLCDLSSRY

Take `CCC1(c2csc(N(CCC(=O)O)Cc3ccc(C)s3)n2)CCC(C(C)C)CC1` (mixture of isomers) [Example 41, Sodium; 3-[[4-(1-ethyl-4-isopropyl-cyclohexyl)-thiazol-2-yl]-(5-methyl-thiophen-2-ylmethyl)-amino]-propionate]: the EC50 under setting [1] was determined as 58 nM.

With `CCc1ccc(CN(CCC(=O)O)c2nc(C3CC4CCC3C4)cs2)s1` (centres unmarked) [Example 1, Sodium; 3-[(4-bicyclo[2.2.1]hept-2-yl-thiazol-2-yl)-(5-ethyl-thiophen-2-ylmethyl)-amino]-propionate], under setting [1], the EC50 was 126 nM.

As for `CCc1ccc(CN(CCC(=O)O)c2nc([C@H]3CC[C@H](C(C)C)CC3)cs2)s1` [Example 10, Sodium; 3-[(5-ethyl-thiophen-2-ylmethyl)-[4-(4-trans-isopropyl-cyclohexyl)-thiazol-2-yl]-amino]-propionate], the EC50 under setting [1] worked out at 260 nM.

For `CCc1ccc(CN(CCC(=O)O)c2nc(C3Cc4ccccc4C3)cs2)s1` [Example 11, 3-[(5-Ethyl-thiophen-2-ylmethyl)-(4-indan-2-yl-thiazol-2-yl)-amino]-propionic acid], the concentration for a half-maximal effect (EC50) under setting [1] turned out to be 252 nM.

On to `Cc1ccc(CN(CCC(=O)O)c2nc(C3Cc4ccccc4C3)cs2)s1` [Example 12, 3-[(4-Indan-2-yl-thiazol-2-yl)-(5-methyl-thiophen-2-ylmethyl)-amino]-propionic acid], for which, under setting [1], the half-maximal effective concentration (EC50) was 384 nM.

As to `CCc1ccc(CN(CCC(=O)O)c2nc(C3CCc4ccccc4C3)cs2)s1` (centres unmarked) [Example 13, 3-{(5-Ethyl-thiophen-2-ylmethyl)-[4-(1,2,3,4-tetrahydro-naphthalen-2-yl)-thiazol-2-yl]-amino}-propionic acid], the EC50 under setting [1] amounted to 528 nM.

For the compound `Cc1ccc(CN(CCC(=O)O)c2nc(C3CCc4ccccc4C3)cs2)s1` (centres unmarked) [Example 14, 3-{(5-Methyl-thiophen-2-ylmethyl)-[4-(1,2,3,4-tetrahydro-naphthalen-2-yl)-thiazol-2-yl]-amino]-propionic acid], under setting [1], the EC50 was 602 nM.

In the case of `CCc1ccc(CN(CCC(=O)O)c2nc(CC3CCC(C)CC3)cs2)s1` (centres unmarked) [Example 15, 3-{(5-Ethyl-thiophen-2-ylmethyl)-[4-(4-methyl-cyclohexylmethyl)-thiazol-2-yl]-amino}-propionic acid], the EC50 under setting [1] amounted to 221 nM.

On to `Cc1ccc(CN(CCC(=O)O)c2nc(CC3CCC(C)CC3)cs2)s1` (centres unmarked) [Example 16, 3-[[4-(4-Methyl-cyclohexylmethyl)-thiazol-2-yl]-(5-methyl-thiophen-2-ylmethyl)-amino]-propionic acid], for which, under setting [1], the EC50 was 205 nM.

Take `CCc1ccc(CN(CCC(=O)O)c2nc(C3CCC(C(F)(F)F)CC3)cs2)s1` (centres unmarked) [Example 17, 3-{(5-Ethyl-thiophen-2-ylmethyl)-[4-(4-trifluoromethyl-cyclohexyl)-thiazol-2-yl]-amino}-propionic acid]: the EC50 under setting [1] is 259 nM.

`Cc1ccc(CN(CCC(=O)O)c2nc(C3CCC(C(F)(F)F)CC3)cs2)s1` (centres unmarked) [Example 18, 3-{(5-Methyl-thiophen-2-ylmethyl)-[4-(4-trifluoromethyl-cyclohexyl)-thiazol-2-yl]-amino}-propionic acid]: under setting [1], the EC50 turned out to be 416 nM.

As to `CCc1ccc(CN(CCC(=O)O)c2nc(C3CCC(CC)CC3)cs2)s1` (centres unmarked) [Example 20, 3-[[4-(4-Ethyl-cyclohexyl)-thiazol-2-yl]-(5-ethyl-thiophen-2-ylmethyl)-amino]-propionic acid], under setting [2], the EC50 was determined as 389 nM.

On to `CCCC1CCC(c2csc(N(CCC(=O)O)Cc3ccc(CC)s3)n2)CC1` (centres unmarked) [Example 22, 3-{(5-Ethyl-thiophen-2-ylmethyl)-[4-(4-propyl-cyclohexyl)-thiazol-2-yl]-amino]-propionic acid], for which the EC50 under setting [1] came to 394 nM.

As for `CCc1ccc(CN(CCC(=O)O)c2nc(C3CCC(F)(F)CC3)cs2)s1` [Example 24, Sodium; 3-[[4-(4,4-difluoro-cyclohexyl)-thiazol-2-yl]-(5-ethyl-thiophen-2-ylmethyl)-amino]-propionate], under setting [1], the EC50 was 79 nM.

On to `Cc1ccc(CN(CCC(=O)O)c2nc(C3CCC(C(C)(C)C)CC3)cs2)s1` (centres unmarked) [Example 27, 3-[[4-(4-tert-Butyl-cyclohexyl)-thiazol-2-yl]-(5-methyl-thiophen-2-ylmethyl)-amino]-propionic acid], for which, under setting [1], the EC50 is 114 nM.

`CCc1ccc(CN(CCC(=O)O)c2nc(C3CCC(C(C)(C)C)CC3)cs2)s1` (centres unmarked) [Example 28, 3-[[4-(4-tert-Butyl-cyclohexyl)-thiazol-2-yl]-(5-ethyl-thiophen-2-ylmethyl)-amino]-propionic acid]: the EC50 under setting [1] came to 171 nM.

`CSc1ccc(CN(CCC(=O)O)c2nc(C3CCC(C(C)(C)C)CC3)cs2)s1` (centres unmarked) [Example 29, Sodium; 3-[[4-(4-tert-butyl-cyclohexyl)-thiazol-2-yl]-(5-methylsulfanyl-thiophen-2-ylmethyl)-amino]-propionate]: the EC50 under setting [1] came out at 427 nM.

`COC1CCC(c2csc(N(CCC(=O)O)Cc3ccc(C)s3)n2)CC1` (centres unmarked) [Example 30, 3-[[4-(4-Methoxy-cyclohexyl)-thiazol-2-yl]-(5-methyl-thiophen-2-ylmethyl)-amino]-propionic acid]: under setting [1], the EC50 was determined as 3890 nM.

For `CCc1ccc(CN(CCC(=O)O)c2nc(C3CCC(OC)CC3)cs2)s1` (centres unmarked) [Example 32, 3-{(5-Ethyl-thiophen-2-ylmethyl)-[4-(4-methoxy-cyclohexyl)-thiazol-2-yl]-amino}-propionic acid], the concentration giving a half-maximal response (EC50) under setting [1] amounted to 2280 nM.

Take `CCc1ccc(CN(CCC(=O)O)c2nc(C3CCC(OC)CC3)cs2)s1` (centres unmarked) [Example 33, 3-{(5-Ethyl-thiophen-2-ylmethyl)-[4-(4-methoxy-cyclohexyl)-thiazol-2-yl]-amino}-propionic acid]: the EC50 under setting [1] was 1230 nM.

As to `Cc1ccc(CN(CCC(=O)O)c2nc(C3(c4ccc(F)cc4)CCCC3)cs2)s1` [Example 34, Sodium; 3-[{4-[1-(4-fluoro-phenyl)-cyclopentyl]-thiazol-2-yl}-(5-methyl-thiophen-2-ylmethyl)-amino]-propionate], the EC50 under setting [1] is 269 nM.

As for `Cc1ccc(C2(c3csc(N(CCC(=O)O)Cc4ccc(C)s4)n3)CCCC2)cc1` [Example 35, Sodium; 3-{(5-methyl-thiophen-2-ylmethyl)-[4-(1-p-tolyl-cyclopentyl)-thiazol-2-yl]-amino}-propionate], the EC50 under setting [1] came to 132 nM.

In the case of `CC(C)(C)C1CCC(c2csc(N(CCC(=O)O)Cc3ccc(S(C)(=O)=O)s3)n2)CC1` (centres unmarked) [Example 36, 3-[[4-(4-tert-Butyl-cyclohexyl)-thiazol-2-yl]-(5-methanesulfonyl-thiophen-2-ylmethyl)-amino]-propionic acid], the half-maximal effective concentration (EC50) under setting [1] worked out at 267 nM.

For `CC(C)C1CCC(c2csc(N(CCC(=O)O)Cc3ccc(S(C)(=O)=O)s3)n2)CC1` (centres unmarked) [Example 37, 3-[[4-(4-Isopropyl-cyclohexyl)-thiazol-2-yl]-(5-methanesulfonyl-thiophen-2-ylmethyl)-amino]-propionic acid], under setting [2], the EC50 is 524 nM.

As to `CCc1ccc(CN(CCC(=O)O)c2nc(C3(CC(C)C)CCCC3)cs2)s1` [Example 43, 3-{(5-Ethyl-thiophen-2-ylmethyl)-[4-(1-isobutyl-cyclopentyl)-thiazol-2-yl]-amino}-propionic acid], the EC50 under setting [1] amounted to 173 nM.

Turning to `Cc1cc(CN(CCC(=O)O)c2nc(C3(CC(C)C)CCCC3)cs2)c(C)s1` [Example 44, 3-{(2,5-Dimethyl-thiophen-3-ylmethyl)-[4-(1-isobutyl-cyclopentyl)-thiazol-2-yl]-amino}-propionic acid], under setting [1], the EC50 turned out to be 191 nM.

(Values after patent US8563742B2, “Substituted aminothiazole derivatives, pharmaceutical compositions, and methods of use” (High Point Pharmaceuticals, LLC, priority 2008, dated 2013).)
